The target in data set [1] is T1, cofactor-independent phosphoglycerate mutase (iPGAM) (Brugia malayi, UniProt Q4VWF8).
T1 construct: gene ipgm-1; Full-length, histidine-tagged
T1 sequence (Q4VWF8 1-515): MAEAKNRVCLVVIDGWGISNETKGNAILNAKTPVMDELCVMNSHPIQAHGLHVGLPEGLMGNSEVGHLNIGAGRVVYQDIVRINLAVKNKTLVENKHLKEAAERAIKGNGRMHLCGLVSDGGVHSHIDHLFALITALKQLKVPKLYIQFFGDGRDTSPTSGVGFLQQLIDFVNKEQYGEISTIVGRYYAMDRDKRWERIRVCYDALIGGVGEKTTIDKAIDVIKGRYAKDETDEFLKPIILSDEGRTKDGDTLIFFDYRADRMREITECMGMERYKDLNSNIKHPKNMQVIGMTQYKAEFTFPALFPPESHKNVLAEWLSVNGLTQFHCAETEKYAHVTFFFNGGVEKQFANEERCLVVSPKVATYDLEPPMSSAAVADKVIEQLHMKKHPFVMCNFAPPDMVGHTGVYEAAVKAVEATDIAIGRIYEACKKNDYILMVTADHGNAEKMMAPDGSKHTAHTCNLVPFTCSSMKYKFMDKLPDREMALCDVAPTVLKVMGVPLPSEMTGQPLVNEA
In words: coupled enzyme assay (NADH absorbance at […] nm), luminescence (Kinase-Glo) confirmation. In kind it is biochemical.

Data set [2] concerns the target T2, cofactor-independent phosphoglycerate mutase (iPGAM) (Caenorhabditis elegans, UniProt G5EFZ1).
T2 construct: gene ipgm-1; Full-length, histidine-tagged
T2 sequence (G5EFZ1 1-539): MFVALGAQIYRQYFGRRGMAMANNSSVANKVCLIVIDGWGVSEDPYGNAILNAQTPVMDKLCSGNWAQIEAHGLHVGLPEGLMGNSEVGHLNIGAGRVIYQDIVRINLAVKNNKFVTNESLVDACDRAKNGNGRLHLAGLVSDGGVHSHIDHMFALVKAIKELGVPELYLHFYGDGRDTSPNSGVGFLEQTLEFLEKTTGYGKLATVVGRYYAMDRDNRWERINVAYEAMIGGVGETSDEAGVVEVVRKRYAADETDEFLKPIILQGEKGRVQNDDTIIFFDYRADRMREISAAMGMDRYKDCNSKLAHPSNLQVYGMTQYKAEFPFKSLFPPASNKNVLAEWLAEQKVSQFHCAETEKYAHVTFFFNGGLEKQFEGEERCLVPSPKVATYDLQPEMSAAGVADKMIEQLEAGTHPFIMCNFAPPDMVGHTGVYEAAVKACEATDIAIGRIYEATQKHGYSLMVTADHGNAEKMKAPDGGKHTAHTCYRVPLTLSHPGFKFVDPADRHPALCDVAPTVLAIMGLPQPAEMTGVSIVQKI
In words: HTS coupled enzyme assay at […] ([…] inhibition), re-tested and reconfirmed. It counts as biochemical.

Data set [3] has as its target T1, cofactor-independent phosphoglycerate mutase (iPGAM). In words: coupled enzyme assay (NADH absorbance at […] nm), dose-response; luminescence (Kinase-Glo) confirmation. It counts as biochemical.
Substrate in data set [4]: O=C(O)[C@H](O)COP(=O)(O)O
As to the kind of experiment: enzyme kinetics (Km), coupled assay. It counts as biochemical, Caenorhabditis elegans. The conditions noted are these: Mg2+.

Substrate in data set [5]: O=C(O)[C@H](O)COP(=O)(O)O
As to the kind of experiment: enzyme kinetics (Km), coupled assay. It counts as biochemical, Brugia malayi. The conditions noted are these: Mg2+.

In the case of `CCc1cc2c[n+](C3CCCCC3)sc2s1` [Genz-2], in data set [1], the IC50 – broadly, the point on the concentration scale where inhibition reaches its midpoint – is above 10 µM. The inhibition (commonly how much of the control response was suppressed) at 10 µM in data set [2] was above 40%.

As for `Nc1cc2cccnc2c2ncccc12` [NCDS-1, 5-amino-1,10-phenanthroline], in data set [3], the half-inhibitory concentration (IC50) is above 10 µM.

B1: cofactor-independent phosphoglycerate mutase (iPGAM) (Caenorhabditis elegans) (protein)
chain: T2 sequence (G5EFZ1 1-539)
notes: Full-length, histidine-tagged
Consider B1, for which the Michaelis constant (Km) (as a rule, the concentration of substrate that gives half-maximal velocity) in data set [4] worked out at 380 µM.

B2: cofactor-independent phosphoglycerate mutase (iPGAM) (Brugia malayi) (protein)
chain: T1 sequence (Q4VWF8 1-515)
notes: Full-length, histidine-tagged
As for B2, the Km in data set [5] is 370 µM.

For the origin of these results see publication PMC3886921, “Cofactor-Independent Phosphoglycerate Mutase from Nematodes Has Limited Druggability, as Revealed by Two High-Throughput Screens” (PLoS Neglected Tropical Diseases, 2014).
